Results taken from patent US20110105397A1, “METHOD FOR TREATING HEART FAILURE WITH STRESSCOPIN-LIKE PEPTIDES” (priority 2009, published 2011).
“And” between values parts separate entries of the source, which are not always exact repeats. Identical values can stand only once.

How the values were obtained:
CRHR1 [1] = target: T1, CRHR1 (Homo sapiens, UniProt P34998); experiment: cAMP assay, h-CRHR1 transfected SK-N-MC cells; assay type: cell-based; parameters: expressed in transfected cells; conditions: Table 11; for EC50: h-CRHR1 transfected SK-N-MC cells, 1 hr at 37° Celsius, read-out: pA50 (Experimental) (converted)
T1 sequence (P34998 24-415): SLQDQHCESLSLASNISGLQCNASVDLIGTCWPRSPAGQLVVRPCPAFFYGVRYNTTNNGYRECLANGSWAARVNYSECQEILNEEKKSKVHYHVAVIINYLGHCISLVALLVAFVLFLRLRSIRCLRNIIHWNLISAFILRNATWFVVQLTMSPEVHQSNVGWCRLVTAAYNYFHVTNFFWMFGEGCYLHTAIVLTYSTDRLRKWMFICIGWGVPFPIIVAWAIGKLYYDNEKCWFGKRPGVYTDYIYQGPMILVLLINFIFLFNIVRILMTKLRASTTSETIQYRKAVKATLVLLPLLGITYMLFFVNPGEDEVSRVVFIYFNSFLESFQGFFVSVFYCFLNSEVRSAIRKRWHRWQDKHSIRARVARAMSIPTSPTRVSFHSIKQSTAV
Experimental: Human CRHR1 (accession number X72304) or CRHR2 (accession number U34587) were cloned into pcDNA3.1/Zeo expression vector and stably transfected into SK—N-MC cells by electroporation. Cells were maintained in MEM w/Earl's Salt with 10% FBS, 50 I.U. penicillin, 50 μg/ml streptomycin, 2 mM L-glutamine, 1 mM sodium pyruvate and 0.1 mM non-essential amino acids, 600 μg/ml G418. Cells were grown at 37° C. in 5% CO2
Cells were plated in 96-well tissue culture dishes (Biocoat from BD Biosciences) overnight at 50,000 cell/well. Cells were washed with PBS then resuspended in DMEM F-12 without phenol red, containing 10 μM isobutylmethylxanthine (IBMX). Cells were incubated with the peptides at concentrations ranging from 1 pM to 10 μM for 60 min at 37° Celsius. […] Forskolin (10 μM), a direct stimulant of adenylate cyclase, was used as positive control. The assays were stopped by the addition of 0.5 M HCl and mixing by orbital rotation for 2 h at 4° Celsius.
Transfected SK—N-MC cells were plated in 96-well Biocoat tissue culture dishes (BD Biosciences, San Jose, Calif., U.S.A) overnight at 50,000 cell/well. Cells were first washed with PBS and then suspended with DMEM/F-12 without phenol red, containing […]. Suspended cells were transferred into a 96-well flash plate coated with scintillant fluid. Cells were incubated with peptides ranging from 1 pM to 1 μM, for 60 min, at 37° Celsius. Forskolin at 10 μM was used as positive control. After ligand stimulation, cells were lysed by the addition of 0.5M HCl and mixed by orbital rotation for 2 h at 4° Celsius in order to release intracellular cAMP into the media.
Media containing released intracellular cAMP was transferred to a 96-well flash plate coated with scintillant fluid containing an anti-cAMP antibody. […] To generate a standard curve, cAMP ranging from 2.5 to 250 pmoles/ml was included in the experiment.
Individual agonist concentration-response curve data were fitted to the Hill equation, see formula below, using GraphPad Prism (Graphpad Software, La Jolla, Calif., U.S.A.), to provide estimates of agonist concentration needed to generate one-half maximal response (A50), and the maximal asymptote (α) and Hill slope (nH) parameters. In this equation, [A] is the agonist concentration and E is the measured effect:
For display purposes the mean fitted parameter estimates were used to generate a single E/[A] curve shown superimposed on the mean experimental data. Potency estimates for agonists, pA50, are expressed as the negative logarithm of the midpoint of each curve and listed with their standard error of measurement (SEM).
Human and rat peptides (see Table 10) were used on the stimulation of h-CRHR1 or h-CRHR2 transfected SK—N-MC cells in the cAMP flash plate assay. Peptides were incubated for 1 hr at 37° Celsius. Curves were calculated using non-linear regression sigmoidal concentration-response analysis calculation in GraphPad Prism.

CRHR1 [2] = target: T1, CRHR1; experiment: CRHR1 radioligand binding, [125I]-(Tyr0)-sauvagine; parameters: host or cells: cell membranes
Excerpt: The solution was then homogenized with a Polytron tissue grinder at a setting of 10 and 7×3 s (Brinkmann Instruments, Westbury, N.Y.). […] The bound radioactivity was separated by filtration using a Multiscreen Resist manifold (Millipore Corp., Billerica, Mass., U.S.A). The filters were washed three times with ice-cold PBS at pH 7.5 and radioactivity retained on the filters was quantified by its liquid scintillation measured by a TopCount counter (Packard BioScience, Boston, Mass., U.S.A). All experiments were performed in triplicate.

h-CRHR2b = target: T2, h-CRHR2b (Homo sapiens, UniProt Q13324); conditions: h-CRHR2b transfected HEK-293 cells, approximated values from concentration response curves (Hsu et al., 2001); cited from earlier work
T2 sequence (Q13324 1-438 isoform Q13324-2): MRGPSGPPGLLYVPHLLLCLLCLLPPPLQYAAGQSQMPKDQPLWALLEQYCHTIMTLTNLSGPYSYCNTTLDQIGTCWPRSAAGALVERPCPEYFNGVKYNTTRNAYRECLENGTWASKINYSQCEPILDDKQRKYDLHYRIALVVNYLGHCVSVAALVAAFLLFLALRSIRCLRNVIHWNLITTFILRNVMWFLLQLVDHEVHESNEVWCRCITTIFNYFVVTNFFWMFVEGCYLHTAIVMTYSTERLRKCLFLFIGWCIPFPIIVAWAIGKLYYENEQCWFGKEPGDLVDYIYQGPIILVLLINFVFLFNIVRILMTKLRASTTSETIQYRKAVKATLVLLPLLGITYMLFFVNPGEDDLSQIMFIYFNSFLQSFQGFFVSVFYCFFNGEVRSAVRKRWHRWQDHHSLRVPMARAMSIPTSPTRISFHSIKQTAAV

Compound	nH (Hill slope) (CRHR1 [1]; h-CRHR1)	αmax (maximal asymptote) (CRHR1 [1]; h-CRHR1)	nH (CRHR1 [2])	EC50 (CRHR1 [1])	Published pA50 (h-CRHR2b)	Ki (CRHR1 [2])	nH (Hill slope) (CRHR1 [1]; h-CRHR1, listed as h-SRP)
CC[C@H](C)[C@H](NC(=O)[C@H](CO)NC(=O)[C@H](CC(C)C)NC(=O)[C@@H]1CCCN1C(=O)[C@@H]1CCCN1C(=O)[C@H](CC(=O)O)NC(=O)[C@@H](N)CC(=O)O)C(=O)N[C@@H](CC(=O)O)C(=O)N[C@@H](CC(C)C)C(=O)N[C@H](C(=O)N[C@@H](Cc1ccccc1)C(=O)N[C@@H](Cc1c[nH]cn1)C(=O)N[C@@H](CC(C)C)C(=O)N[C@@H](CC(C)C)C(=O)N[C@@H](CCCNC(=N)N)C(=O)N[C@H](C(=O)N[C@@H](CC(C)C)C(=O)N[C@@H](CC(C)C)C(=O)N[C@@H](CCC(=O)O)C(=O)N[C@@H](CC(C)C)C(=O)N[C@@H](C)C(=O)N[C@@H](CCCNC(=N)N)C(=O)N[C@H](C(=O)N[C@@H](CCC(N)=O)C(=O)N[C@@H](CO)C(=O)N[C@@H](CCC(N)=O)C(=O)N[C@@H](CCCNC(=N)N)C(=O)N[C@@H](CCC(=O)O)C(=O)N[C@@H](CCCNC(=N)N)C(=O)N[C@@H](C)C(=O)N[C@@H](CCC(=O)O)C(=O)N[C@@H](CCC(N)=O)C(=O)N[C@@H](CC(N)=O)C(=O)N[C@@H](CCCNC(=N)N)C(=O)N[C@H](C(=O)N[C@H](C(=O)N[C@@H](Cc1ccccc1)C(=O)N[C@@H](CC(=O)O)C(=O)N[C@@H](CO)C(=O)N[C@H](C(N)=O)C(C)C)[C@@H](C)CC)[C@@H](C)CC)[C@@H](C)O)[C@@H](C)O)[C@@H](C)O [SEQ ID NO: 114, DDPPLSIDLTFHLLRTLLELARTQSQRERAEQNRIIFDSV-NH2]	1.15	99.61	0.91 ± 0.27				
H-TKFTLSLDVPTNIMNLLFNIAKAKNLRAQAAANAHLMAQI-NH2 [SEQ ID NO: 1, TKFTLSLDVPTNIMNLLFNIAKAKNLRAQAAANAHLMAQI-NH2]			1.16 ± 0.65	> 10 µM	~9^4	25.1 µM	
H-HPGSRIVLSLDVPIGLLQILLEQARARAAREQATTNARILARV-NH2 [SEQ ID NO: 117, HPGSRIVLSLDVPIGLLQILLEQARARAAREQATTNARILARV-NH2, reference compound]				0.457 µM and 0.631 µM and 0.525 µM	~9^4		1.61 and 1.33 and 1.26
